# “And” between values parts separate entries of the source, which are not always exact repeats. Equal values may be shown once.
# Test system: 922993-354-T-J3-PDC complex spheroids, viability
# Test: Anticancer human tumor 922993-354-T-J3-PDC patient-derived endometrial carcinoma cell line growth inhibition [GQUAD]
# Conditions: for viability, T/C: stronger effect = lower value
# Description: DNA G-quadruplex Stabilizer Agents in Combinations in Complex Spheroids
# A high-throughput screen of multi-cell type tumor spheroids was designed to identify active combinations of DNA G-quadruplex stabilizer agents and targeted small molecules. Complex spheroids include a stromal component modeled by human endothelial cells (HUVEC) and fibroblasts modeled by human mesenchymal stem cells (MSCs). The concentration ranges selected for each drug and investigational agent were based upon clinically achievable concentrations if the clinical Cmax of the agent was known.
# Compounds. The drugs and investigational agents: pidnarulex (CX-5461; NSC782164), APTO-253 (NSC789042), BRACO-19 (NSC847499), peposertib (NSC802822), ceralasertib (NSC780249), elimusertib (NSC800525), camonsertib (NSC841442), AZD-1390 (NSC803789), olaparib (NSC753686), talazoparib (NSC767125), ART-558 (NSC835418), sotorasib (NSC818433), MRTX-1133 (NSC836407), SN-38 (NSC673596), topotecan (NSC609699), etoposide (NSC141540), doxorubicin (NSC123127), gemcitabine (NSC613327), 5-fluorouracil (NSC19893), paclitaxel (NSC125973), vemurafenib (NSC761431), panobinostat (NSC761190), R-306465 (JNJ-16241199; NSC773264), adavosertib (NSC754352), TP-3654 (NSC805149), carboplatin (NSC241240), KSQ-4279 (NSC840948), and staurosporine (NSC755774) were obtained from the National Cancer Institute (NCI) Developmental Therapeutics Program Chemical Repository (34). The FDA-approved anticancer drug set is available from the NCI Developmental Therapeutics Program. […] The stock solutions were prepared in dimethyl sulfoxide (DMSO, Sigma-Aldrich, St. Louis, MO, cat. D2650) at 800-fold the tested concentration and stored at -70 degrees C prior to their use. All drugs and investigational agents were tested over a range starting from a high concentration at or near the clinical Cmax and decreasing in half-log increments. If the clinical Cmax for an agent had not been determined, the highest concentration tested was 10 microM.
# 2.3 Cell Culture. All cells were maintained in an incubator at 37 degrees C and 5% CO2 with 95% humidity. The PDC lines were cultured according to standard operating procedures established by the NCI PDMR. All PDCs were thawed and cultured in Matrigel-coated flasks prepared with a working solution of 1X Ham's F-12 nutrient mix, without supplementation (Invitrogen, cat. 11765054), 100 U/mL penicillin-streptomycin (Invitrogen, cat. 15140122), and 2.5% Matrigel (Corning Inc., cat. 354248) for the first three passages. The 857933-349-R-J2-PDC line was cultured in 6C/Colon 1B media, which includes advanced DMEM/F-12 (Thermo Fisher Scientific, cat. 12634028), 10 mM HEPES (Thermo Fisher Scientific, cat. 15630080), 1X GlutaMAX supplement (Thermo Fisher Scientific, cat. 35050061), 0.1 mg/mL primocin (InvivoGen, cat. ant-pm-2), 10% defined fetal bovine serum, heat inactivated (HyClone Laboratories Inc., cat. SH30070.03HI), 50% L-WRN conditioned media (ATCC, cat. CRL-3276), 1.25 mM N-Acetyl-L-cysteine (Sigma-Aldrich, cat. A9165), 10 mM nicotinamide (Sigma-Aldrich, cat. N0636), 1X B-27 supplement (Thermo Fisher Scientific, cat. 17504044), 1X N-2 supplement (Thermo Fisher Scientific, cat. 17502048), 10 microM Y-27632 dihydrochloride (Tocris Bioscience, cat. 1254), and 50 ng/mL human EGF recombinant protein (Thermo Fisher Scientific, cat. PHG0311). The 485176-168-R4-J1-PDC line was cultured in Panc media, which includes all 6C/Colon 1B media components plus 100 ng/mL human FGF-10 (Thermo Fisher Scientific, cat. 100-26), 500 nM SB-431542 (Selleckchem, cat. S1067), and gastrin (Tocris, cat. 3006).
# […]
# 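Note: spheroids exposed to compounds for seven days.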
# 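Throughout, for viability, T/C: 100% = DMSO vehicle control viability.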
structure (smiles),measurement,setting,value
CC[C@@]1(O)C(=O)OCc2c1cc1n(c2=O)Cc2cc3c(CN(C)C)c(O)ccc3nc2-1 + Cc1[nH]c2ccc(F)cc2c1-c1nc2c3cccnc3c3ncccc3c2[nH]1,IC50,"curve of first compound, second compound 0.0316 µM",> 316 nM
same,IC50,"curve of first compound, second compound 0.1 µM",> 316 nM
same,IC50,"curve of first compound, second compound 0.316 µM",> 316 nM
same,IC50,"curve of first compound, second compound 1 µM",307 nM
same,IC50,"curve of first compound, second compound 3.16 µM",> 316 nM
same,IC50,"curve of first compound, second compound 10 µM",282 nM
same,"viability, T/C","second compound 0.0316 µM, first compound 0.000999 µM",91.8%
same,"viability, T/C","second compound 0.0316 µM, first compound 0.00316 µM",95.9%
same,"viability, T/C","second compound 0.0316 µM, first compound 0.00999 µM",109%
same,"viability, T/C","second compound 0.0316 µM, first compound 0.0316 µM",105%
same,"viability, T/C","second compound 0.0316 µM, first compound 0.0999 µM",82.4%
same,"viability, T/C","second compound 0.0316 µM, first compound 0.316 µM",57.1%
same,"viability, T/C","second compound 0.1 µM, first compound 0.000999 µM",94%
same,"viability, T/C","second compound 0.1 µM, first compound 0.00316 µM",98.1%
same,"viability, T/C","second compound 0.1 µM, first compound 0.00999 µM",79.3%
same,"viability, T/C","second compound 0.1 µM, first compound 0.0316 µM",104%
same,"viability, T/C","second compound 0.1 µM, first compound 0.0999 µM",77%
same,"viability, T/C","second compound 0.1 µM, first compound 0.316 µM",55.6%
same,"viability, T/C","second compound 0.316 µM, first compound 0.000999 µM",125%
same,"viability, T/C","second compound 0.316 µM, first compound 0.00316 µM",84.3%
same,"viability, T/C","second compound 0.316 µM, first compound 0.00999 µM",103%
same,"viability, T/C","second compound 0.316 µM, first compound 0.0316 µM",92.1%
same,"viability, T/C","second compound 0.316 µM, first compound 0.0999 µM",97.5%
same,"viability, T/C","second compound 0.316 µM, first compound 0.316 µM",52.4%
same,"viability, T/C","second compound 1 µM, first compound 0.000999 µM",97.1%
same,"viability, T/C","second compound 1 µM, first compound 0.00316 µM",106%
same,"viability, T/C","second compound 1 µM, first compound 0.00999 µM",89.8%
same,"viability, T/C","second compound 1 µM, first compound 0.0316 µM",104%
same,"viability, T/C","second compound 1 µM, first compound 0.0999 µM",90.6%
same,"viability, T/C","second compound 1 µM, first compound 0.316 µM",48.7%
same,"viability, T/C","second compound 3.16 µM, first compound 0.000999 µM",74.5%
same,"viability, T/C","second compound 3.16 µM, first compound 0.00316 µM",108%
same,"viability, T/C","second compound 3.16 µM, first compound 0.00999 µM",93.1%
same,"viability, T/C","second compound 3.16 µM, first compound 0.0316 µM",93.3%
same,"viability, T/C","second compound 3.16 µM, first compound 0.0999 µM",89.5%
same,"viability, T/C","second compound 3.16 µM, first compound 0.316 µM",67.4%
same,"viability, T/C","second compound 10 µM, first compound 0.000999 µM",134%
same,"viability, T/C","second compound 10 µM, first compound 0.00316 µM",91.1%
same,"viability, T/C","second compound 10 µM, first compound 0.00999 µM",109%
same,"viability, T/C","second compound 10 µM, first compound 0.0316 µM",97.2%
same,"viability, T/C","second compound 10 µM, first compound 0.0999 µM",74.6%
same,"viability, T/C","second compound 10 µM, first compound 0.316 µM",45.2%
COc1ncnc(C2CC2)c1-c1ncc2cnn(Cc3ccc(-c4nc(C(F)(F)F)cn4C(C)C)cc3)c2n1,"viability, T/C",compound 0.0316 µM,91.6% and 114% and 86.8%
same,"viability, T/C",compound 0.1 µM,87.8% and 92.6% and 89.9%
same,"viability, T/C",compound 0.316 µM,101% and 104% and 102%
same,"viability, T/C",compound 1 µM,87.8% and 99.7% and 99.6%
same,"viability, T/C",compound 3.16 µM,110% and 85.1% and 69.7%
same,"viability, T/C",compound 10 µM,95.9% and 87.4% and 81.4%
same,IC50,curve of compound,> 10000 nM
Cc1cccc(N(C)C(=O)C2C(O)CCN2c2nc(C)cc(C(F)(F)F)c2C#N)c1 (stereo unspecified),"viability, T/C",compound 0.0316 µM,90.6% and 93.6% and 97.1%
same,"viability, T/C",compound 0.1 µM,106% and 90.6% and 105%
same,"viability, T/C",compound 0.316 µM,83.6% and 87.3% and 122%
same,"viability, T/C",compound 1 µM,118% and 86.8% and 91.9%
same,"viability, T/C",compound 3.16 µM,122% and 71.7% and 102%
same,"viability, T/C",compound 10 µM,110% and 94.2% and 78.3%
same,IC50,curve of compound,> 10000 nM

# Source: PubChem BioAssay AID2060489 (Molecular Pharmacology Branch, DTP, NCI, 2025)
